The record followed here is a melting point compilation (Tetko et al.; mined from patent text by program, amines drawn as free bases though some values may be those of a salt).

For orientation: melting point means the temperature of the solid-liquid transition.

For `Cc1nc2ncnn2c(C2CCCCC2)c1-c1c(F)cc(OCCCN(C)C)cc1F`, the melting point fell in the range of 95 to 97 °C.
In the case of `FC(Br)C=Cc1ncn(C(c2ccccc2)(c2ccccc2)c2ccccc2)n1` (stereo unspecified) it was 145 to 146 °C.
In the case of `CC1(CBr)SC2C(NC(=O)COc3ccccc3)C(=O)N2C1C(=O)O` (stereo unspecified) it was 164 to 166 °C; in that of `O=CNNc1ccc([N+](=O)[O-])cc1`, 183 to 185 °C.
In the case of `CC1=C(C(O)c2ccc3c(c2)CN(C(N)=O)CC3)C(C)(C)CCC1` (stereo unspecified) it was 88.2 to 89.5 °C.
For the molecule `CC(C)(C)OC(=O)C(N)C1NC(C(=O)OCc2ccccc2)C2(CCN(Cc3ccccc3)CC2)S1` (stereo unspecified), the melting point fell in the range of 140 to 141 °C.
In the case of `O=C(Nc1cccc(C(F)(F)F)c1)C(=O)N1CCC(Cc2ccc(F)cc2)CC1` it was 113 to 115 °C.
In the case of `COc1ccc(C=O)cc1C(=O)NCc1ccc(C(F)(F)F)cc1` it was 116 to 117 °C; in that of `Cc1[nH]c(=O)ccc1C(=O)c1ccco1`, 258 to 260 °C.
In the case of `COc1ccc(-c2nc(NS(=O)(=O)c3ccc(C(C)(C)C)cc3)c(Oc3ccccc3OC)c(OC[C@@H](O)CO)n2)cc1` it was 141 to 142 °C; in that of `CCCCN(CCCC)c1ccc(C(C#N)=C(C#N)C#N)c(OC)c1`, 86 °C; in that of `CCOCCn1cc2c(C3C(=O)Nc4ccc(Cl)cc43)nc(Cl)nc2n1` (stereo unspecified), over 300 °C.
`Cc1nc2nc(-c3ccc(C4(N)CCC4)cc3)c(-c3ccccc3)cn2n1` showed a melting point of 207 °C.
The molecule `Cc1c(-c2ccc(O)cc2)oc2ccccc2c1=O` came in with a melting point of 241 to 242 °C.
The result for `CC(C)CC[C@H](O)[C@H](CC1CCCCC1)NC(=O)[C@H](Cc1c[nH]cn1)NC(=O)[C@H](Cc1ccccc1)NC(=O)N1CCOCC1` reads 108 to 110 °C; that for `Nc1nc(N)c(C(=O)N=CNN2CCSCC2)nc1Cl`, 234 to 236 °C; that for `CC1CN(C2=NC(=O)C(=Cc3cccc(-c4cc(F)c(O)c(C56CC7CC(CC(C7)C5)C6)c4)c3)S2)CC(C)O1` (stereo unspecified), 262 to 264 °C.
In the case of `CC(C)OC(=O)c1cccc(C(O)(c2ccc3c(c2)c(-c2cccc(Cl)c2)cc(=O)n3C)c2cncn2C)c1` (stereo unspecified) it was 150 °C; in that of `COc1ccc(C(N)=O)c(OC)c1-c1ccc(C[C@H](NC(=O)c2c(Cl)cc(NC(N)=O)cc2Cl)C(=O)O)cc1`, 217 to 219 °C; in that of `CC(=O)CC(=O)N=C1SCCN1C`, 43 to 45 °C.
The result for `Cc1cc(-c2cc(Cl)n(C)n2)c(C)[nH]1` reads 59 to 61 °C; that for `CCc1nc2c(cnn2CC)c(NC2CCOCC2)c1CNC(=O)c1cccc(C(=O)NCc2ccc(OC)c(-c3cccc(CN4CCCNCC4)c3)c2)c1`, 143 to 147 °C; that for `Nc1c(Cl)cc(C(O)CNCCCCCCOCCCCc2ccccc2)cc1Cl` (stereo unspecified), 74 to 76 °C.
As to `COCCOc1ccc(/C=C(\C)C(=O)NS(=O)(=O)c2cccc(Cl)c2)c(Oc2ncc(C(F)(F)F)cc2Cl)c1`, the melting point was in the range of 89 to 92 °C.
In the case of `CC1(C)CC(=NO)c2cc(OCc3ccccc3)ccc2O1` it was 105 to 108 °C; in that of `O=C(NCc1cc(Br)cc2[nH]c(=O)c(=O)[nH]c12)c1ccccn1`, over 270 °C; in that of `COC(=O)c1ccc(N(N)C(C)=O)c(N)c1`, 175 to 178 °C.
The result for `O=C(CC(=O)C1CC1)c1cnccn1` reads 111 to 112 °C.
As to `CC(C)C1(CO)Cc2cc(OCC(=O)O)c(Cl)c(Cl)c2C1=O` (stereo unspecified), the melting point was 200 to 202 °C.
As to `CNC(=O)c1ccccc1Nc1nc(Nc2cc3c(cc2OC)N(C)C(=O)OCC3)ncc1Br`, the melting point was in the range of 227 to 228 °C.
In the case of `CNc1nc(-c2cccc(NC(=O)c3cccc(Cl)c3)c2)c2cc(OC)c(OC)cc2n1` it was 124 to 126 °C.
In the case of `CNC(=NCCCSCc1[nH]cnc1C)NC#N` it was 156 to 158 °C; in that of `C[C@@H](Cn1ncc2ccc(OCCO)c(Br)c21)NC(=O)OCc1ccccc1`, 97 to 99 °C; in that of `COc1ccc(F)cc1C(C)(C)CC(O)(Cc1ccc(C(=O)O)cc1)C(F)(F)F` (stereo unspecified), 174 to 177 °C.
In turn, `COc1cc(C(O)P(=O)(OC)OC)cc(OC)c1OC` (stereo unspecified) displayed a melting point of 103 to 104 °C.
In the case of `CCCC(O)c1c(C)c(NC(=O)CC(C)(C)C)c(C)c2c1OCC2c1ccc(C(C)C)cc1` (stereo unspecified) it was 150 to 151 °C; in that of `COc1ccc2c(c1)C(=O)N(c1ccc3c(ccn3C(C)C)c1)C2`, 144 to 148 °C.
In the case of `CCCCCCCCCCCCCCOc1ccc(CC(=O)Nc2ccc(CBr)cc2)cc1` it was 110 to 115 °C; in that of `O=C(NC(Cc1ccccc1)C1CC(Cc2ccccc2)=NO1)OCc1ccccc1` (stereo unspecified), 87.5 to 89.5 °C.
With `COc1ccc2c(c1Cl)S(=O)(=O)c1ccccc1N2C`, the melting point worked out at 244 °C.
The result for `Cc1c(Br)c2c(c(C)c1NC(=O)OC(C)(C)C)CCO2` reads 176 to 177 °C; that for `CC(O)CCc1ccc(-c2ccccc2)cc1` (stereo unspecified), 74 to 75 °C; that for `C=CCOc1ccc(OC(C)=O)c2ccc(=O)[nH]c12`, 142 to 143 °C.
The result for `CC(=O)NCC1CC(c2ccc(-n3ccc(C#N)c3)c(F)c2)=NO1` (single isomer, unassigned; (-)) reads 159 to 161 °C.
The result for `COc1nc2ccccc2nc1NC(=O)N1CCN(c2cc([N+](=O)[O-])cc([N+](=O)[O-])c2)CC1` reads 216 to 218 °C.
Consider `CCCCOC(=O)Cc1cc2c(s1)CCN(C(=O)[C@H](Cc1ccc(O)cc1)NC(=O)c1ccc(C(=N)N)cc1)C2`, for which the melting point lay in the range of 176 to 178 °C.
Consider `Cc1ccc(O[C@@H](Cc2ccc(O)cc2)C(=O)OCC[Si](C)(C)C)cc1`, for which the melting point was in the range of 94 to 95 °C.
The result for `CC(=O)c1c(F)ccc(NC2OC(=O)CC(=O)O2)c1F` reads 82 to 84 °C.
In the case of `CNS(=O)(=O)c1cn(C)c2ccccc2c1=O` it was 248 to 250 °C.
The result for `COC(=O)c1ccc(-c2ccc(-c3ccccc3)c(-c3ccc4c(c3)C(C)(C)CCC4(C)C)c2)c(OC)c1` reads 144 to 146 °C; that for `CNc1nc(-c2cccc(N)c2)c2cc(OC)c(OC)cc2n1`, 197 to 199 °C.
`Cc1ccc(C2(O)CCN(CCCc3nnc4n3CCCCC4)CC2)cc1`: the melting point is 160 to 161 °C.
The result for `Cn1c(=O)c(=O)[nH]c2ccccc21` reads 277 to 286 °C.
Molecule `Cc1ccc2c(c1)NC(=O)c1cccc3c1N2CC3` returned a melting point of 238 to 240 °C.
The result for `CC(C)N(O)C(=O)Cc1ccc2c(c1)C(=O)c1ccccc1CO2` reads 144 to 145 °C; that for `CCCN(Cc1ccc(-c2ccccc2-c2nnn[nH]2)cc1)c1ncncc1C(=O)OCC`, 160 to 162 °C.
For the molecule `Cn1ccc2cc(C(=N)Nc3cccc(NC(=O)C=Cc4ccccc4)c3)ccc21`, the melting point is 143 to 148 °C.
The result for `CC(C)(F)c1nc[nH]c(=O)c1Cl` reads 168 to 171 °C.
In the case of `CSC1NC(=O)N(C2CCCCC2)C(=O)N1N=C(C)C` (stereo unspecified) it was 111 to 112 °C; in that of `COC(=O)CCc1cnoc1-c1ccc(OC)c(OC)c1`, 68 to 69 °C; in that of `Cc1ccc(C(=O)Nc2cc(C(F)(F)F)ccn2)cc1/C=C/n1cnc2c(NC3CC3)ncnc21`, 232 °C.
